In US20260265694A1, “USE OF A VITISIN COMPOUND FOR THE PRODUCTION OF HEMATOPOIETIC CELLS” (ETABLISSEMENT FRANCAIS DU SANG, priority 2022, published 2026):

Tests used:
[1] = tested on: peripheral blood CD34+ cells; assay: ERYTHRO 2 PROTOCOL: three-phase erythrocyte differentiation; format: cell-based, human; settings: peripheral blood CD34+ cells in homeostasis, 10 μM
Description: (§1) This protocol was applied to CD34^+ cells. Phase 1 of this protocol was in particular applied to BFU-E cells. This protocol was adapted from Vlaski et al. (Experimental Hematology 2009; 37:573-584).
(§2) The ex vivo erythrocyte production was established on a 28-day cell culture and involves three phases, namely 1) amplification of primitive erythrocyte progenitors, then 2) differentiation of said progenitors into erythrocyte precursors, and finally 3) the terminal stage of maturation with cell enucleation and development of mature erythrocytes.
(§3) i. Detailed Description of the Three Phases of the Protocol • Phase I of the protocol starts on DO with the seeding of 10^4 cells/mL in 5 mL of supplemented IMDM medium as defined below (see section ii). On day 4, dilution of the culture is performed by recovering 3 mL, which is replaced with the same volume of fresh medium. […] From day 11 to the end of the process, the cells are placed on a layer of mesenchymal stromal cells (MSCs) (coculture), allowing terminal maturation into functional enucleated cells by virtue of the contact between stromal cells and erythrocyte precursors. Suspended erythrocyte cells are seeded at a concentration of 3×10^5/ml and co-cultured from day 11 to day 15 in fresh medium with cytokines (SCF, IL-3, EPO and HC) and 5% fetal calf serum (FCS) required for MSCs. On day 15, the suspended erythrocyte cells are removed from culture, washed, then reseeded onto a new adherent layer of MSCs and cultured for a further four days in 2 mL of fresh medium containing only EPO. • Phase III of the protocol begins on day 19. At this stage, the cells complete their maturation by the enucleation of orthochromatic erythroblasts to form reticulocytes, leading to the formation of erythrocytes. On day 19, the cells are washed and spread on a new layer of MSCs in 2 mL of fresh cytokine-free medium. On day 23, the cultures are fed with fresh medium until day 28, corresponding to the last day of culture in the erythropoiesis protocol. ii. Description of the Culture Medium
(§4) The cells are incubated in Iscove's Modified Dulbecco Medium (IMDM_PAN BIOTECH) supplemented with various reagents to obtain a medium promoting the growth of cells committed to the erythrocyte lineage, namely: • L-Glutamine (4 mM), • Streptomycin and penicillin (1%), • Inositol (40 μg/mL), • Folic acid (10 μg/mL), • Mono-thioglycerol (1.6×10^−4 M), • Transferrin (120 μg/mL), • Insulin (10 μg/mL), N • Iron nitrate (90 ng/mL), • Iron sulfate (900 ng/mL) • Human serum albumin (10 mg/ml).
(§5) After preparation of the culture medium, cytokines are added extemporaneously to the culture medium: • Stem Cell Factor (SCF) at 100 ng/mL, • Interleukin-3 (IL-3) at 5 ng/mL, • Erythropoietin (EPO) at 3 IU/mL, • Hydrocortisone (HC) at 10^−6 M. The CD34^+ cells are incubated at 20% O2 and 5% CO2 at 37° C. for 28 days. iii. Description of the Culture Conditions Applied In order to test the effect of vitisin B in this context, various conditions were defined.
(§6) • CTRL condition: Absence of vitisin B throughout the entire protocol. • Condition I: Presence of vitisin B (10 μM) during phase I of the protocol. • […]: Presence of vitisin B (10 μM) during phases I and II of the protocol. • Condition III: Presence of vitisin B (10 μM) during the three phases of the protocol.
(§7) Analyses are performed on cells from each condition. The differentiation and maturation of erythrocyte cells are monitored by quantifying progenitors, analyzing the expression of GPA and CD71 markers, and also by morphological analysis.
(§8) During and at the end of the various erythrocyte differentiation protocols, cell proliferation and cell differentiation are analyzed. Cell proliferation is evaluated by counting of cells on Malassez slides, with Trypan blue exclusion of dead cells. […]

[2] = tested on: placental blood CD34+ cells; assay: as above; format: cell-based, human
Description: as §1, §2, §3, §4, §5, §6, §7, §8

`Oc1ccc(C2Oc3ccc(/C=C/c4cc(O)cc5c4[C@H](c4cc(O)cc(O)c4)[C@@H](c4ccc(O)cc4)O5)cc3C2c2cc(O)cc3c2C(c2cc(O)cc(O)c2)C(c2ccc(O)cc2)O3)cc1` (stereo in doubt) [vitisin B, 5-[(2R,2'S,3R,3'S)-5-[(1E)-2-[(2S,3S)-3-(3,5-Dihydroxyphenyl)-2,3-dihydro-6-hydroxy-2-(4-hydroxyphenyl)-4-benzofuranyl]ethenyl]-2,2′,3,3′-tetrahydro-6′-hydroxy-2,2′-bis(4-hydroxyphenyl)[3,4′-bibenzofuran]-3′-yl]-1,3-benzenediol] was tested, and the “cell proliferation from the transition to phase II” value [1] was “sharp increase”, the “percentage of cells with the phenotype CD71negGPA+” value ([2]; 10 μM, versus CTRL, FIG. 6A) was “increases” and the “cell proliferation in phase I” value ([2]; Days 0 to 11, 10 μM, versus CTRL, FIG. 5) was “similar”. The “number of cells relative to the control condition (CTRL)” value ([2]; condition I: vitisin B 10 μM during phase I only, FIG. 5) was 1.5 times, the “cells expressing GPA” value ([2]; day 8 of culture, stated without distinguishing conditions) was “less than 20%” and the “cells expressing GPA” value ([2]; day 28, 10 μM (CTRL 40%), FIG. 6A) was “more than 50%”. For the same molecule, the “cell proliferation from the transition to phase II” value ([2]; from Day 11, peak on day 21, 10 μM, conditions I, II, III, FIG. 5) was “sharp increase” and the “absolute number of cells with the phenotype CD71negGPA+” value ([2]; vitisin B 10 μM in phase I, FIG. 6B) was “increases”.
